These compounds were tested on SMARTCAR-MTH1-wt-HiBiT (Jurkat.7 cells) (assay: HiBit Lytic Assay (HiBit DC50, MTH1 degraders of Table 2)). Conditions: Jurkat.7 SMARTCAR-MTH1-wt-HiBiT cells, compound treatment time 4 hr, 11-point half log dose response.
Type: cell-based, human
Method: Example 3. HiBit Lytic Assay
• Compound is made at 10 mM, half log dilution, 11 points. • MDR plates can also be ordered from Frontier with same format. • 1. Barcode a 384LDV plate (384-well Low Dead Volume Microplate, Labcyte LP-0200) (Echo compatible) on the left side. • 2. Transfer 13.6 μL of 10 mM compound into column 1 of LDV plate (Labcyte). • 3. Fill column 2-11 and column 23 of MDR plate with 9.30 μL of DMSO. • 4. Serial dilute 3.16 fold from column 1 to 2 by transferring 4.30 μL from column 1 to column 2, and so on to column 11. *Change tip in every dilution to prevent compound carryover effect! • 5. Seal the plate with Plate Sealer, then store the MDR plate at room temperature for short term storage and in −20° C. for long term storage.
• Cells are treated with 30 nL of each compound at 10 mM, half log dilution, 11 points with final concentration of 1000 nM or 833 nM, half log dilution, 11 points, in duplicates. Final DMSO concentration is 0.1%. • 1. Barcode the plates made on the left side and label the plates with silver marker. • 2. Dispense with the following scheme: • a. 30 nL of compound into corresponding wells in cell plates via Echo550 with “MDR32_HiBiT16_30 nL”. Top concentration will be 1000 nM. • 3. Seal the plate with Plate Sealer.
• Cells are dispensed at density specified in Cell Line Table in 384-well microplate. • 1. Culture cells to between 50-80% of confluence in sterile culture flasks of appropriate size. • 2. For Adherent Cell Lines: • a. Aspirate off growth media in culture flask, and wash off the Phenol Red media with 5 mL of 1×PBS. • b. Add 5 mL of Trypsin to the cells, incubate at 37° C. for 5 minutes. • c. Add 5 mL of growth media to the trypsinzed cells, and resuspend. • 3. Remove 10 μL of cells, and resuspend the cells with 10 μL of Trypan Blue. Insert the solution to counting chamber slide, and count the cells via cell counter. • 4. Adjust the cell concentration to specified plating density, and strain the cells with cell strainer. • 5. Dispense the cells via E1-ClipTip™ Electronic Multichannel Pipettes or Multidrop™ Combi Reagent Dispenser with Standard tube dispensing cassette: • a. Prime the cassette with 10-20 mL of ddH2O. • b. Prime the cassette with 10-20 mL of cells. • c. Dispense the cells at low speed for 30 μL/well in Corning® 384 Well Low Flange Black Flat Bottom Polystyrene TC-Treated Microplate. • d. Wash the cassette with 10-20 mL of ddH2O, follow by 10-20 mL of 70% EtOH, then again with 10-20 mL of ddH2O. • 6. Incubate the plates at 37° C.×compound treatment time.
• 1. If not already, bring Nano-Glo® HiBiT Lytic Buffer to room temperature. • 2. Determine the amount of reagent needed. A volume of reagent equal to the volume of media in the well should be added (i.e. 30 μL of cells will need 30 μL of HiBiT Lytic reagent). • 3. Into a given volume of buffer, dilute the substrate 50-fold and the LgBiT protein 100-fold. For example, to make 10 ml of reagent, add the following: • 10 ml Nano-Glo® HiBiT Lytic Buffer • 200 μl Nano-Glo® HiBiT Lytic Substrate • 100 μl LgBiT Protein • The reagent should be reconstituted immediately before use. However, once reconstituted, it should take about 4 hours for the activity to decrease 10%. • 4. Cool down the cell plate to room temperature for 10-15 minutes without lid. • 5. Dispense the HiBiT Lytic Reagent via E1-ClipTip™ Electronic Multichannel Pipettes or Multidrop™ Combi Reagent Dispenser with Standard tube dispensing cassette: • a. Prime the cassette with 10-20 mL of ddH2O. • b. Prime the cassette with 10-20 mL of CTG 2.0. • c. Dispense the HiBiT Lytic Reagent at medium speed for 30 μL/well in cell plate to column 1-23 (column 24 will be used as plate background). • d. Wash the cassette with 10-20 mL of ddH2O, follow by 10-20 mL of 70% EtOH, then again with 10-20 mL of ddH2O. • 6. Incubate the cell plate at room temperature for 10 minutes without lid. • 7. […]

Row | Structure (SMILES) | DC50 [nM]
1 | CNC(=O)c1cnc2cc(OC)c(-c3ccc(C(=O)NCCCCNC(=O)C(C)Nc4cccc5c4C(=O)N(C4CCC(=O)NC4=O)C5=O)nc3)cc2c1Nc1ccccc1 (stereo in doubt) [Compound 384, 6-(6-((4-((2S)-2-((2-(2,6-dioxopiperidin-3-yl)-1,3-dioxoisoindolin-4-yl)amino)propanamido)butyl)carbamoyl)pyridin-3-yl)-7-methoxy-N-methyl-4-(phenylamino)quinoline-3-carboxamide] | < 100
2 | NC(=O)c1cnc2ccc(-c3ccc(C(=O)NCCCCNC(=O)COc4cccc5c4C(=O)N(C4CCC(=O)NC4=O)C5=O)cc3)cc2c1Nc1ccccc1 (centres unmarked) [Compound 300, 4-anilino-6-[4-[4-[[2-[2-(2,6-dioxo-3-piperidyl)-1,3-dioxo-isoindolin-4-yl]oxyacetyl]amino]butylcarbamoyl]phenyl]quinoline-3-carboxamide] | < 100
3 | CN(CC(=O)NCCCCNC(=O)c1ccc(-c2ccc3ncc(C(N)=O)c(Nc4ccccc4)c3c2)cc1)c1cccc2c1C(=O)N(C1CCC(=O)NC1=O)C2=O (centres unmarked) [Compound 301, 4-anilino-6-[4-[4-[[2-[[2-(2,6-dioxo-3-piperidyl)-1,3-dioxo-isoindolin-4-yl]-methyl-amino]acetyl]amino]butylcarbamoyl]phenyl]quinoline-3-carboxamide] | < 100
4 | NC(=O)c1cnc2ccc(-c3ccc(C(=O)NCCCCNC(=O)CNc4cccc5c4C(=O)N(C4CCC(=O)NC4=O)C5=O)cc3)cc2c1Nc1ccccc1 (centres unmarked) [Compound 302, 6-(4-((4-(2-((2-(2,6-dioxopiperidin-3-yl)-1,3-dioxoisoindolin-4 yl)amino)acetamido)butyl)carbamoyl)phenyl)-4-(phenylamino)quinoline-3-carboxamide] | < 100
5 | NC(=O)c1cnc2ccc(-c3ccc(C(=O)NCCCCNC(=O)CNc4cccc5c4CN(C4CCC(=O)NC4=O)C5=O)cc3)cc2c1Nc1ccccc1 (centres unmarked) [Compound 303, 4-anilino-6-[4-[4-[[2-[[2-(2,6-dioxo-3-piperidyl)-1-oxo-isoindolin-4-yl]amino]acetyl]amino]butylcarbamoyl]phenyl]quinoline-3-carboxamide] | < 100
6 | NC(=O)c1cnc2ccc(-c3ccc(C(=O)NCCCNC(=O)COc4cccc5c4C(=O)N(C4CCC(=O)NC4=O)C5=O)cc3)cc2c1Nc1ccccc1 (centres unmarked) [Compound 306, 6-(4-((3-(2-((2-(2,6-dioxopiperidin-3-yl)-1,3-dioxoisoindolin-4-yl)oxy)acetamido)propyl)carbamoyl)phenyl)-4-(phenylamino)quinoline-3-carboxamide] | < 100
7 | NC(=O)c1cnc2ccc(-c3ccc(C(=O)NCCCNC(=O)CNc4cccc5c4C(=O)N(C4CCC(=O)NC4=O)C5=O)cc3)cc2c1Nc1ccccc1 (centres unmarked) [Compound 307, 6-(4-((3-(2-((2-(2,6-dioxopiperidin-3-yl)-1,3-dioxoisoindolin-4-yl)amino)acetamido)propyl)carbamoyl)phenyl)-4-(phenylamino)quinoline-3-carboxamide] | < 100
8 | NC(=O)c1cnc2ccc(-c3ccc(C(=O)N[C@H]4CC[C@@H](NC(=O)CNC(=O)COc5cccc6c5C(=O)N(C5CCC(=O)NC5=O)C6=O)CC4)cc3)cc2c1Nc1ccccc1 (some centres unmarked) [Compound 308, 6-(4-(((1s,4s)-4-(2-(2-((2-(2,6-dioxopiperidin-3-yl)-1,3-dioxoisoindolin-4-yl)oxy)acetamido)acetamido)cyclohexyl)carbamoyl)phenyl)-4-(phenylamino)quinoline-3-carboxamide] | < 100
9 | NC(=O)c1cnc2ccccc2c1Nc1ccc(-c2ccc(C(=O)NCCCCNC(=O)COc3cccc4c3C(=O)N(C3CCC(=O)NC3=O)C4=O)cc2)cc1 (centres unmarked) [Compound 309, 4-[4-[4-[4-[[2-[2-(2,6-dioxo-3-piperidyl)-1,3-dioxo-isoindolin-4-yl]oxyacetyl]amino]butylcarbamoyl]phenyl]anilino]quinoline-3-carboxamide] | < 100
10 | NC(=O)c1cnc2ccc(N3CCN(C(=O)CCCCCNC(=O)COc4cccc5c4C(=O)N(C4CCC(=O)NC4=O)C5=O)CC3)cc2c1Nc1ccccc1 (centres unmarked) [Compound 310, 6-(4-(6-(2-((2-(2,6-dioxopiperidin-3-yl)-1,3-dioxoisoindolin-4-yl)oxy)acetamido)hexanoyl)piperazin-1-yl)-4-(phenylamino)quinoline-3-carboxamide] | < 1000
11 | CN(CC(=O)NCCOCCNC(=O)c1ccc(-c2ccc3ncc(C(N)=O)c(Nc4ccccc4)c3c2)cc1)c1cccc2c1C(=O)N(C1CCC(=O)NC1=O)C2=O (centres unmarked) [Compound 311, 4-anilino-6-[4-[2-[2-[[2-[[2-(2,6-dioxo-3-piperidyl)-1,3-dioxo-isoindolin-4-yl]-methyl-amino]acetyl]amino]ethoxy]ethylcarbamoyl]phenyl]quinoline-3-carboxamide] | < 1000
12 | CN(CC(=O)NCCCCCC(=O)N1CCC(c2ccc3ncc(C(N)=O)c(Nc4ccccc4)c3c2)CC1)c1cccc2c1C(=O)N(C1CCC(=O)NC1=O)C2=O (centres unmarked) [Compound 312, 4-anilino-6-[1-[6-[[2-[[2-(2,6-dioxo-3-piperidyl)-1,3-dioxo-isoindolin-4-yl]-methyl-amino]acetyl]amino]hexanoyl]-4-piperidyl]quinoline-3-carboxamide] | < 1000
13 | CNC(=O)c1cnc2ccc(-c3ccc(C(=O)NCCCCNC(=O)COc4cccc5c4C(=O)N(C4CCC(=O)NC4=O)C5=O)cc3)cc2c1Nc1ccccc1 (centres unmarked) [Compound 340, 4-anilino-6-[4-[4-[[2-[2-(2,6-dioxo-3-piperidyl)-1,3-dioxo-isoindolin-4-yl]oxyacetyl]amino]butylcarbamoyl]phenyl]-N-methyl-quinoline-3-carboxamide] | < 100
14 | CNC(=O)c1cnc2ccc(-c3ccc(C(=O)NCCCC(=O)N4CCN(c5cccc6c5C(=O)N(C5CCC(=O)NC5=O)C6=O)CC4)cc3)cc2c1Nc1ccccc1 (centres unmarked) [Compound 343, 4-anilino-6-[4-[[4-[4-[2-(2,6-dioxo-3-piperidyl)-1,3-dioxo-isoindolin-4-yl]piperazin-1-yl]-4-oxo-butyl]carbamoyl]phenyl]-N-methyl-quinoline-3-carboxamide] | < 100
15 | CNC(=O)c1cnc2cc(OC)c(-c3ccc(C(=O)NCCCCNC(=O)CNc4cccc5c4C(=O)N(C4CCC(=O)NC4=O)C5=O)cc3)cc2c1Nc1ccccc1 (centres unmarked) [Compound 344, 6-(4-((4-(2-((2-(2,6-dioxopiperidin-3-yl)-1,3-dioxoisoindolin-4-yl)amino)acetamido)butyl)carbamoyl)phenyl)-7-methoxy-N-methyl-4-(phenylamino)quinoline-3-carboxamide] | < 100
16 | CNC(=O)c1cnc2cc(OC)c(-c3ccc(C(=O)NCCCCNC(=O)CN(C)c4cccc5c4C(=O)N(C4CCC(=O)NC4=O)C5=O)cc3)cc2c1Nc1ccccc1 (centres unmarked) [Compound 345, 6-(4-((4-(2-((2-(2,6-dioxopiperidin-3-yl)-1,3-dioxoisoindolin-4-yl)(methyl)amino)acetamido)butyl)carbamoyl)phenyl)-7-methoxy-N-methyl-4-(phenylamino)quinoline-3-carboxamide] | < 100
17 | CNC(=O)c1cnc2ccc(-c3ccc(C(=O)NCCCCNC(=O)C(C)Nc4cccc5c4C(=O)N(C4CCC(=O)NC4=O)C5=O)cc3)cc2c1Nc1ccccc1 (centres unmarked) [Compound 346, 4-anilino-6-[4-[4-[2-[[2-(2,6-dioxo-3-piperidyl)-1,3-dioxo-isoindolin-4-yl]amino]propanoylamino]butylcarbamoyl]phenyl]-N-methyl-quinoline-3-carboxamide] | < 100
